In brackets after ≈: the same amount, converted by molar mass. Activity calls are given as the source filed them. The rule behind the calls is not given here.
Key:
[1] = Stability in human liver microsomes assessed as parent compound remaining after 30 mins; type: ADME, Microsome; conditions: read-out: Stability
[2] = system: Candida albicans; assay: Antifungal activity against Candida albicans ATCC SC5314 assessed as reduction in fungal growth incubated for 48 hrs by CLSI based broth microdilution method; type: functional
[3] = system: Aspergillus fumigatus; assay: Antifungal activity against Aspergillus fumigatus AF293 assessed as reduction in fungal growth incubated for 48 hrs by CLSI based broth microdilution method; type: functional
[4] = Stability in rat liver microsomes assessed as parent compound remaining after 30 mins; type: ADME, Microsome; conditions: microsomes, 0.5 h
[5] = system: Nakaseomyces glabratus; assay: Antifungal activity against Candida glabrata BG2 assessed as reduction in fungal growth incubated for 48 hrs by CLSI based broth microdilution method; type: functional
[6] = Stability in mouse liver microsomes assessed as parent compound remaining after 30 mins; type: ADME, Microsome; conditions: microsomes, 0.5 h
[7] = system: Cryptococcus neoformans; assay: Antifungal activity against Cryptococcus neoformans H99 assessed as reduction in fungal growth incubated for 72 hrs by CLSI based broth microdilution method; type: functional
[8] = system: Candida albicans; assay: Induction of drug resistant in Candida albicans ATCC SC5314 assessed as increase in EZC IC50 at 16 times IC50; type: functional, organism-based
[9] = system: Cryptococcus neoformans; assay: Fungicidal activity against Cryptococcus neoformans H99 at 8 times of MIC after 24 hrs by time-kill kinetics assay; type: functional, organism-based
[10] = system: Trichophyton rubrum; assay: Ex vivo antifungal activity against Trichophyton rubrum KCCM60450 infected in human nail assessed as reduction in ATP level at 10 % w/w after 24 hrs; type: functional; design: scale not given: the % may be the effect or the level left
[11] = system: Candida albicans; assay: Induction of drug resistance in Candida albicans ATCC SC5314 assessed as increase in EZC IC50 at 8 time IC50 after 7 days; type: functional, organism-based; conditions: time 7.0 day
[12] = system: Nakaseomyces glabratus; assay: Induction of drug resistant in Candida glabrata BG2 assessed as increase in EZC IC50 at 16 times IC50; type: functional, organism-based
[13] = system: Nakaseomyces glabratus; assay: Induction of drug resistance in Candida glabrata BG2 assessed as increase in ECZ IC50 at 8 times IC50 after 4 days; type: functional, organism-based; conditions: BG2, 96 h
[14] = system: Candida albicans; assay: Induction of drug resistance in Candida albicans ATCC SC5314 assessed as increase in EZC IC50 at 8 time IC50 after 35 days; type: functional, organism-based; conditions: time 35.0 day
[15] = target: Cytochrome P450 2D6 (Homo sapiens, UniProt P10635); assay: Inhibition of CYP2D6 (unknown origin); type: ADME
[16] = target: Cytochrome P450 3A4 (Homo sapiens, UniProt P08684); assay: Inhibition of CYP3A4 (unknown origin) relative to control; type: ADME
[17] = target: Cytochrome P450 2C9 (Homo sapiens, UniProt P11712); assay: Inhibition of CYP2C9 (unknown origin) relative to control; type: ADME
[18] = target: CYP3A4 (Homo sapiens, UniProt P08684); assay: Inhibition of CYP3A4 (unknown origin) at 10 uM relative to control; type: ADME
[19] = target: CYP2D6 (Homo sapiens, UniProt P10635); assay: Inhibition of CYP2D6 (unknown origin) at 10 uM relative to control; type: ADME
[20] = target: CYP2C19 (Homo sapiens, UniProt P33261); assay: Inhibition of CYP2C19 (unknown origin) at 10 uM relative to control; type: ADME
[21] = system: Cryptococcus neoformans; assay: Fungicidal activity against Cryptococcus neoformans H99 at 8 times of MIC after 12 hrs by time-kill kinetics assay; type: functional, organism-based
[22] = system: Nakaseomyces glabratus; assay: Induction of drug resistant in Candida glabrata BG2 assessed as increase in FCZ IC50 at 16 times IC50; type: functional, organism-based
[23] = system: Candida albicans; assay: Induction of drug resistant in Candida albicans ATCC SC5314 assessed as increase in FCZ IC50 at 16 times IC50; type: functional, organism-based
[24] = system: Nakaseomyces glabratus; assay: Induction of drug resistance in Candida glabrata BG2 assessed as increase in FCZ IC50 at 8 times IC50 after 23 days; type: functional, organism-based; conditions: BG2, 552 h
[25] = system: Candida albicans; assay: Induction of drug resistance in Candida albicans ATCC SC5314 assessed as increase in FCZ IC50 at 8 times IC50 measured after 5 to 22 days; type: functional, organism-based
[26] = Stability in rat plasma assessed as parent compound remaining after 30 to 120 mins; type: ADME, cell-free; conditions: time 30-120 min
[27] = Stability in human plasma assessed as parent compound remaining after 30 to 120 mins; type: ADME, cell-free; conditions: time 30-120 min
[28] = system: Trichophyton rubrum; assay: Fungicidal activity against Trichophyton rubrum KCCM60450 at 8 times after 24 hrs by time-kill kinetics assay; type: functional, organism-based
[29] = system: Trichophyton mentagrophytes; assay: Fungicidal activity against Trichophyton mentagrophytes KCCM60449 at 8 times after 24 hrs by time-kill kinetics assay; type: functional, organism-based

Chain of Cytochrome P450 3A4 (P08684 whole entry): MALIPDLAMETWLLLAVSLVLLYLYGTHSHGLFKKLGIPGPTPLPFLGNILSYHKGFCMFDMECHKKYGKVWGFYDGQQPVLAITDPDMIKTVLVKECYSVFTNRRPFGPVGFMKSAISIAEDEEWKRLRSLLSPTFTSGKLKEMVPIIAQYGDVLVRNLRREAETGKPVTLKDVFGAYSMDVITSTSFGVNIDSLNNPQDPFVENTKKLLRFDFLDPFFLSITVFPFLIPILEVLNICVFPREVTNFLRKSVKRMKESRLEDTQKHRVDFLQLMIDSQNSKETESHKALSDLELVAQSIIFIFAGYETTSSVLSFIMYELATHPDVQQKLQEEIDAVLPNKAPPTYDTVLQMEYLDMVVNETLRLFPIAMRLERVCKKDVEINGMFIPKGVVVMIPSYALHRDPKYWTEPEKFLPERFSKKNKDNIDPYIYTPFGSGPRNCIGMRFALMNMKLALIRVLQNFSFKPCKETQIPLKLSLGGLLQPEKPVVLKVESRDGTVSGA
Chain of Cytochrome P450 2C9 (P11712 whole entry): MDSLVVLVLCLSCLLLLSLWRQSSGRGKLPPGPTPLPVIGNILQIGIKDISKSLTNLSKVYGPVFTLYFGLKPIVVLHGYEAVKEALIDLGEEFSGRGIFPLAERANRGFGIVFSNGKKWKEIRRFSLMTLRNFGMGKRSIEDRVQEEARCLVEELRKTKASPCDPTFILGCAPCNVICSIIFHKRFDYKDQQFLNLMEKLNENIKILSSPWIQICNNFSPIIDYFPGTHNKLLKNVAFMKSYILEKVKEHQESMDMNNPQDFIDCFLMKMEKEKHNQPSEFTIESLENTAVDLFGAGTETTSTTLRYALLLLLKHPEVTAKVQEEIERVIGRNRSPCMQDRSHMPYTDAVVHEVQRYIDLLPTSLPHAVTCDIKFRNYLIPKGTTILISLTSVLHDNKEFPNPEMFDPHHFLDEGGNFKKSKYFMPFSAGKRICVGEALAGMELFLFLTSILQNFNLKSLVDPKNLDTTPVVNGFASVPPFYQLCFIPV
Chain of CYP2D6 (P10635 whole entry): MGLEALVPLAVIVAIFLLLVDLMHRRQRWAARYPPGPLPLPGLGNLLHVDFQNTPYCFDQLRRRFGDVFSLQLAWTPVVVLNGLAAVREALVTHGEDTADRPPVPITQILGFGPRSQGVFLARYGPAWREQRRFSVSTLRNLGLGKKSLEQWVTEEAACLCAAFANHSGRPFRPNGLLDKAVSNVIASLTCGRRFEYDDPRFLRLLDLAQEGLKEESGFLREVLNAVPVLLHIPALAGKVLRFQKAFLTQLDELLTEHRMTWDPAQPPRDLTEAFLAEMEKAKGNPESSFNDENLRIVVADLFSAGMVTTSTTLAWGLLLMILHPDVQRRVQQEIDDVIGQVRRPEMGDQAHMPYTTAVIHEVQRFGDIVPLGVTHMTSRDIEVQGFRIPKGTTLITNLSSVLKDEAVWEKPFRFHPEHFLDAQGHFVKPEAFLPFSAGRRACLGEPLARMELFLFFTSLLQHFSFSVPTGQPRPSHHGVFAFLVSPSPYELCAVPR
Chain of Cytochrome P450 2D6 (P10635 whole entry): as above
Chain of CYP2C19 (P33261 whole entry): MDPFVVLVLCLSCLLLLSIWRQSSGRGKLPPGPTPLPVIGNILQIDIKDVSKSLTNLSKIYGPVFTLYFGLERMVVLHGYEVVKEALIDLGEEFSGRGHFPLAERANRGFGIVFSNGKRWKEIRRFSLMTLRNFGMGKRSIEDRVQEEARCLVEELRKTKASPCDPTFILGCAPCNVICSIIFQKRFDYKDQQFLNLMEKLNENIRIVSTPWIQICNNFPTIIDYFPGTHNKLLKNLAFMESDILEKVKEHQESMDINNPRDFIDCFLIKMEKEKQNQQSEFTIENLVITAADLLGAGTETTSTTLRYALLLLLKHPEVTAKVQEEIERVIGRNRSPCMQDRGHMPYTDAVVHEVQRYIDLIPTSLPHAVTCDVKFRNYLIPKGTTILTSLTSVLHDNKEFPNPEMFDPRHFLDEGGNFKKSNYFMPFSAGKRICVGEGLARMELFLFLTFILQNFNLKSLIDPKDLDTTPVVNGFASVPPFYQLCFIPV
Chain of CYP3A4 (P08684 whole entry): as the sequence (P08684 whole entry) above

CCCCC(NC)C(=O)NCCc1ccc(-c2ccc(Cl)c(Cl)c2)cc1.Cl (racemic)
remaining at 0.5 h [1]: > 85% | MIC [2]: 8 µg/mL | MIC [3]: 8 µg/mL | Stability [4]: Unstable | MIC [5]: 8 µg/mL | Stability [6]: Unstable | MIC [7]: 4 µg/mL

C=C1CCN([C@H](C)[C@](O)(Cn2cncn2)c2ccc(F)cc2F)CC1 [EFINACONAZOLE]
Activity [8]: Active | Activity [9]: inactive | Activity [10]: 31.9% | Activity [11]: Active | Activity [12]: Active | IC50 [13]: 1 µg/mL (≈ 2.87 µM) | Activity [14]: Active

CCCC(NC)C(=O)NCCc1ccc(-c2ccc(C(F)(F)F)cc2)cc1.Cl (racemic)
MIC [2]: 32 µg/mL | MIC [3]: 32 µg/mL | inhibition (INH) [15]: Active | inhibition (INH) [16]: Not Active | MIC [5]: 32 µg/mL | MIC [7]: 16 µg/mL | inhibition (INH) [17]: Not Active

CCCCC(N)C(=O)NCCc1ccc(-c2ccc(Cl)c(Cl)c2)cc1.Cl (racemic)
remaining at 0.5 h [1]: > 85% | MIC [2]: 2 µg/mL | MIC [3]: 4 µg/mL | inhibition at 10 µM [18]: > 70% | MIC [5]: 4 µg/mL | inhibition at 10 µM [19]: > 70% | MIC [7]: 1 µg/mL | inhibition at 10 µM [20]: > 70%

C[C@@H]1[C@H](O)[C@@H](C)/C=C/C=C/C=C/C=C/C=C/C=C/C=C/[C@H](O[C@@H]2O[C@H](C)[C@@H](O)[C@H](N)[C@@H]2O)C[C@@H]2O[C@](O)(C[C@@H](O)C[C@@H](O)[C@H](O)CC[C@@H](O)C[C@@H](O)CC(=O)O[C@H]1C)C[C@H](O)[C@H]2C(=O)O [AMPHOTERICIN B]
MIC [2]: 0.25 µg/mL (≈ 0.271 µM) | MIC [3]: 1 µg/mL (≈ 1.08 µM) | MIC [5]: 0.5 µg/mL (≈ 0.541 µM) | MIC [7]: 0.25 µg/mL (≈ 0.271 µM) | Activity [21]: Active

CCCC(N)C(=O)NCCc1ccc(OCc2ccc(C(F)(F)F)cc2)cc1.Cl (racemic)
MIC [2]: 16 µg/mL | MIC [3]: 32 µg/mL | inhibition (INH) [16]: > 70% | MIC [5]: 32 µg/mL | MIC [7]: 16 µg/mL | inhibition (INH) [17]: > 70%

OC(Cn1cncn1)(Cn1cncn1)c1ccc(F)cc1F [FLUCONAZOLE]
Activity [22]: Active | Activity [9]: inactive | Activity [23]: Active | IC50 [24]: 64 µg/mL (≈ 209 µM) | IC50 [25]: 64 µg/mL (≈ 209 µM)

CCCC(NC)C(=O)NCCc1ccc(-c2ccc(Cl)c(Cl)c2)cc1.Cl (racemic)
remaining at 0.5 h [1]: > 85% | MIC [2]: 16 µg/mL | MIC [3]: 8 µg/mL | Stability [26]: > 95% | Stability [4]: Unstable | MIC [5]: 16 µg/mL | Stability [6]: Unstable | Stability [27]: > 95% | MIC [7]: 4 µg/mL

CN(C/C=C/C#CC(C)(C)C)Cc1cccc2ccccc12
Activity [28]: inactive | Activity [29]: inactive

Cc1cc(C2CCCCC2)n(O)c(=O)c1 [CICLOPIROX]
Activity [10]: 24.21% | Activity [28]: inactive | Activity [29]: inactive
